Where two headings read alike, the source gives them in different places. Starred links: 1 amine or outer side, 2 acyl side, 3 side chain; linkers in the order of their positions; H or OH if unused. Non-standard residues stand in square brackets, D forms with d. Residues, ends and D or L forms follow the SMILES beside them. Groups on a side chain read outwards from the residue. No end group written: not given here. *: point of attachment. γGlu = O=C(O)[C@H](CCC(=O)[*:2])N[*:1]; Palmitoyl = CCCCCCCCCCCCCCCC(=O)*
How the values were obtained:
human GLP1R = target: T1, human GLP1R (Homo sapiens, UniProt P43220); test: cAMP activity assay (HitHunter cAMP XS), cells expressing human GLP1R; format: cell-based
T1 construct: expressed in transfected cells
Protocol: (§1) Peptides were dissolved in 100% DMSO and serially diluted to generate 10 point titrations. The peptide solutions were then transferred into 384-well assay plates (150 nL/well). Assay ready frozen cells expressing human GLP1R or human GCGR were suspended in growth media consisting of DMEM medium (GIBCO), 10% FBS (GIBCO), 1×NEAA(GIBCO), 1× P/S (GIBCO), 10 ug/ml Blasticidin (GIBCO) and 200 μg/mL Hygromycin (GIBCO). […] The cell suspensions (15 μL) were then added to the assay plates containing the peptide solutions (30,000 cells/well for human GCGR; 10,000 cells/well for human GLP1R). The cells were incubated for 1 hour at room temperature in the dark. Production of cAMP was determined using HitHunter™ cAMPXS kits (DiscoverX) following manufacturer protocol. The plates were incubated for overnight at room temperature in the dark. Luminescence was measured using an EnVision Multilabel plate reader (Perkin Elmer). […] EC50 values were calculated using uses a 4 parameter logistic fit based on the Levenberg-Marquardt algorithm.

human GCGR = target: T2, human GCGR (Homo sapiens, UniProt P47871); test: cAMP activity assay (HitHunter cAMP XS), cells expressing human GCGR; format: cell-based; settings: for EC50: read-out: EC50 hGCGR; for Ratio: EC50 hGCGR divided by EC50 hGLP1
T2 construct: expressed in transfected cells
Protocol: as §1

[1] = Table 2, cAMP production, read-out: EC50 hGLP1R
[2] = Table 7, lipidated analogs vs parental peptides, read-out: EC50 hGLP1
[3] = Table 7, lipidated analogs vs parental peptides

T2 sequence (P47871 26-477): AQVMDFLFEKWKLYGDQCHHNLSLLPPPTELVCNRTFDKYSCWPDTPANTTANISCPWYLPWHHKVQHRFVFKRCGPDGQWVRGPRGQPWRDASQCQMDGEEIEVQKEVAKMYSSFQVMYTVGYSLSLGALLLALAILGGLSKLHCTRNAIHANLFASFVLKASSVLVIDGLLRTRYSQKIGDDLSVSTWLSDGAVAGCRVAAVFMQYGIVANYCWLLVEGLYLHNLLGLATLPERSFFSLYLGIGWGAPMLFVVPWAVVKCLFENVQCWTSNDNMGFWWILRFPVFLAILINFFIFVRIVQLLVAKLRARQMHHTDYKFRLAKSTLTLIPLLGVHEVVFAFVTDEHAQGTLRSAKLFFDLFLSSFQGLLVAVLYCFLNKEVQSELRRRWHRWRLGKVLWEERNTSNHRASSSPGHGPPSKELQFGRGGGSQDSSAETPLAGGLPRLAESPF
T1 sequence (P43220 24-463): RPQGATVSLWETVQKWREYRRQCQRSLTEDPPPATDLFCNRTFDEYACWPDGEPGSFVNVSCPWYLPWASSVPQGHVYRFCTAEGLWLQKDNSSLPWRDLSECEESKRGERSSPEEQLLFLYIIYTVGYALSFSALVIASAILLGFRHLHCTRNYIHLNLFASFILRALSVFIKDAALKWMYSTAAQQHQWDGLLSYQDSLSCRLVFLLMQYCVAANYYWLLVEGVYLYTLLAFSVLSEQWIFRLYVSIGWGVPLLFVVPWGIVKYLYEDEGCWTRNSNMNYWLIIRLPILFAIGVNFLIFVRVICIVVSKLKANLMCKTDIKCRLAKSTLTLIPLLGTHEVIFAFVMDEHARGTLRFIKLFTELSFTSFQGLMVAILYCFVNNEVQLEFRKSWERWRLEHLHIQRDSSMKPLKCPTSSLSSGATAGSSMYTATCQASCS

EC50 (human GLP1R; [1]) [nM]	EC50 (human GCGR; Table 2, cAMP production) [nM]	EC50 (human GLP1R; [2]) [nM]	Ratio (human GCGR; Table 7)	EC50 (human GCGR; [3]) [nM]	Compound
0.01	0.02				CC(C)C[C@H](NC(=O)[C@H](CC(C)C)NC(=O)[C@H](Cc1c[nH]c2ccccc12)NC(=O)[C@H](CCC(N)=O)NC(=O)[C@@H](NC(=O)[C@H](Cc1ccccc1)NC(=O)[C@H](CC(=O)O)NC(=O)[C@H](CCC(N)=O)NC(=O)[C@H](C)NC(=O)[C@H](CCCNC(=N)N)NC(=O)[C@H](CCCNC(=N)N)NC(=O)[C@H](CO)NC(=O)[C@H](CC(=O)O)NC(=O)[C@H](CC(C)C)NC(=O)[C@H](Cc1ccc(O)cc1)NC(=O)[C@H](CCCCN)NC(=O)[C@H](CO)NC(=O)[C@H](Cc1ccc(O)cc1)NC(=O)[C@H](CC(=O)O)NC(=O)[C@H](CO)NC(=O)[C@@H](NC(=O)[C@H](Cc1ccccc1)NC(=O)[C@@H](NC(=O)CNC(=O)[C@H](CCC(N)=O)NC(=O)[C@H](CO)NC(=O)[C@@H](N)Cc1c[nH]cn1)[C@@H](C)O)[C@@H](C)O)C(C)C)C(=O)N[C@@H](CC(N)=O)C(=O)N[C@@H](CCC(N)=O)C(N)=O [PD57]
0.01	0.02				CC(C)C[C@H](NC(=O)[C@H](CC(C)C)NC(=O)[C@H](Cc1c[nH]c2ccccc12)NC(=O)[C@H](CCC(N)=O)NC(=O)[C@@H](NC(=O)[C@H](Cc1ccccc1)NC(=O)[C@H](CC(=O)O)NC(=O)[C@H](CCC(N)=O)NC(=O)[C@H](C)NC(=O)[C@H](CCCNC(=N)N)NC(=O)[C@H](CCCNC(=N)N)NC(=O)[C@H](CO)NC(=O)[C@H](CC(=O)O)NC(=O)[C@H](CC(C)C)NC(=O)[C@H](Cc1ccc(O)cc1)NC(=O)[C@H](CCCCN)NC(=O)[C@H](CO)NC(=O)[C@H](Cc1ccc(O)cc1)NC(=O)[C@H](CC(=O)O)NC(=O)[C@H](CO)NC(=O)[C@@H](NC(=O)[C@H](Cc1ccccc1)NC(=O)[C@@H](NC(=O)CNC(=O)[C@H](CCC(N)=O)NC(=O)[C@H](CO)NC(=O)[C@@H](N)Cc1c[nH]cn1)[C@@H](C)O)[C@@H](C)O)C(C)C)C(=O)N[C@@H](CC(=O)O)C(=O)N[C@@H](CO)C(N)=O [PD59]
		0.02	0.5	0.01	CCCCCCCCCCCCCCCC(=O)N[C@@H](CCC(=O)N[C@@H](CCC(=O)NCCCC[C@H](NC(=O)[C@H](CC(=O)O)NC(=O)[C@H](CO)NC(=O)[C@@H](NC(=O)[C@H](Cc1ccccc1)NC(=O)[C@@H](NC(=O)CNC(=O)[C@H](CCC(N)=O)NC(=O)[C@@H](CO)NC(=O)[C@@H](N)Cc1c[nH]cn1)[C@@H](C)O)[C@@H](C)O)C(=O)N[C@@H](CO)C(=O)N[C@@H](CCCCN)C(=O)N[C@@H](Cc1ccc(O)cc1)C(=O)N[C@@H](CC(C)C)C(=O)N[C@@H](CC(=O)O)C(=O)N[C@@H](CC(N)=O)C(=O)N[C@@H](CCCCN)C(=O)N[C@@H](CCCNC(=N)N)C(=O)N[C@@H](C)C(=O)N[C@@H](CCC(N)=O)C(=O)N[C@@H](CC(=O)O)C(=O)N[C@@H](Cc1ccccc1)C(=O)N[C@H](C(=O)N[C@@H](CCC(N)=O)C(=O)N[C@@H](Cc1c[nH]c2ccccc12)C(=O)N[C@@H](CC(C)C)C(=O)N[C@@H](CCSC)C(=O)N[C@@H](CCC(N)=O)C(=O)N[C@H](C(N)=O)[C@@H](C)O)C(C)C)C(=O)O)C(=O)O [TP534] (H-H[dS]QGTFTSDK([γGlu-γGlu-Palmitoyl])SKYLDNKRAQDFVQWLMQT-NH2; N-terminus assumed)
		0.05	0.4	0.02	CCCCCCCCCCCCCCCC(=O)N[C@@H](CCC(=O)N[C@@H](CCC(=O)NCCCC[C@H](NC(=O)[C@H](CC(=O)O)NC(=O)[C@H](CO)NC(=O)[C@@H](NC(=O)[C@H](Cc1ccccc1)NC(=O)[C@@H](NC(=O)CNC(=O)[C@H](CCC(N)=O)NC(=O)[C@@H](CO)NC(=O)[C@@H](N)Cc1c[nH]cn1)[C@@H](C)O)[C@@H](C)O)C(=O)N[C@@H](CO)C(=O)N[C@@H](CCCCN)C(=O)N[C@@H](Cc1ccc(O)cc1)C(=O)N[C@@H](CC(C)C)C(=O)N[C@@H](CC(=O)O)C(=O)N[C@@H](CO)C(=O)N[C@@H](CCCNC(=N)N)C(=O)N[C@@H](CCCNC(=N)N)C(=O)N[C@@H](C)C(=O)N[C@@H](Cc1c[nH]cn1)C(=O)N[C@@H](CC(=O)O)C(=O)N[C@@H](Cc1ccccc1)C(=O)N[C@H](C(=O)N[C@@H](CCC(N)=O)C(=O)N[C@@H](Cc1c[nH]c2ccccc12)C(=O)N[C@@H](CC(C)C)C(=O)N[C@@H](CC(C)C)C(=O)N[C@@H](CC(N)=O)C(=O)N[C@H](C(N)=O)[C@@H](C)O)C(C)C)C(=O)O)C(=O)O [TP535] (H-H[dS]QGTFTSDK([γGlu-γGlu-Palmitoyl])SKYLDSRRAHDFVQWLLNT-NH2; N-terminus assumed)
		≥ 5	0.004	0.02	CC(C)C[C@H](NC(=O)[C@H](CC(C)C)NC(=O)[C@H](CCCCN)NC(=O)[C@H](CO)NC(=O)[C@H](Cc1ccc(O)cc1)NC(=O)[C@H](CC(=O)O)NC(=O)[C@H](CO)NC(=O)[C@H](CC(C)C)NC(=O)[C@H](Cc1ccccc1)NC(=O)[C@@H](NC(=O)CNC(=O)[C@H](CCC(N)=O)NC(=O)[C@@H](CO)NC(=O)[C@@H](N)Cc1c[nH]cn1)[C@@H](C)O)C(=O)N[C@@H](CC(=O)O)C(=O)N[C@@H](CO)C(=O)N[C@@H](CCCNC(=N)N)C(=O)N[C@@H](C)C(=O)N[C@@H](C)C(=O)N[C@@H](CCC(N)=O)C(=O)N[C@@H](CC(=O)O)C(=O)N[C@@H](Cc1ccccc1)C(=O)N[C@H](C(=O)N[C@@H](CCC(N)=O)C(=O)N[C@@H](Cc1c[nH]c2ccccc12)C(=O)N[C@@H](CC(C)C)C(=O)N[C@@H](CC(C)C)C(=O)N[C@@H](CCC(N)=O)C(=O)N[C@H](C(N)=O)[C@@H](C)O)C(C)C [TP552] (H-H[dS]QGTFLSDYSKLLDSRAAQDFVQWLLQT-NH2; N-terminus assumed)
		0.05	0.4	0.02	CCCCCCCCCCCCCCCC(=O)N[C@@H](CCC(=O)N[C@@H](CCC(=O)NCCCC[C@H](NC(=O)[C@H](CC(=O)O)NC(=O)[C@H](CO)NC(=O)[C@@H](NC(=O)[C@H](Cc1ccccc1)NC(=O)[C@@H](NC(=O)CNC(=O)[C@H](CCC(N)=O)NC(=O)[C@@H](CO)NC(=O)[C@@H](N)Cc1c[nH]cn1)[C@@H](C)O)[C@@H](C)O)C(=O)N[C@@H](CO)C(=O)N[C@@H](CCCCN)C(=O)N[C@@H](Cc1ccc(O)cc1)C(=O)N[C@@H](CC(C)C)C(=O)N[C@@H](CC(=O)O)C(=O)N[C@@H](C)C(=O)N[C@@H](CCCNC(=N)N)C(=O)N[C@@H](C)C(=O)N[C@@H](C)C(=O)N[C@@H](Cc1c[nH]cn1)C(=O)N[C@@H](CC(=O)O)C(=O)N[C@@H](Cc1ccccc1)C(=O)N[C@H](C(=O)N[C@@H](CCC(N)=O)C(=O)N[C@@H](Cc1c[nH]c2ccccc12)C(=O)N[C@@H](CC(C)C)C(=O)N[C@@H](CC(C)C)C(=O)N[C@@H](CC(N)=O)C(=O)N[C@H](C(N)=O)[C@@H](C)O)C(C)C)C(=O)O)C(=O)O [TP559] (H-H[dS]QGTFTSDK([γGlu-γGlu-Palmitoyl])SKYLDARAAHDFVQWLLNT-NH2)
0.02	0.03				H-HSQGIFFSDYSKYLDSRRAQDFVQWLMNT-NH2 [PD52]
0.02	0.03				H-HSQGTFFSDYSKYLDSRRAQDFVQWLLET-NH2 [PD58]
0.06	0.04				H-HSQGTFTSDYSKYLDSIRAQDFVQWLMDT-NH2 [PD36]
0.03	0.02				H-HSQGTFTSDYSKYLDSLMAQDFVQWLMST-NH2 [PD22]
0.02	0.02		1		H-HSQGTFTSDYSKYLDSRRAHDFVQWLLNT-NH2 [PD29]
0.03	0.05				HSQGTFTSDYSKYLDELRAYDFVQWLMNT-NH2 [PD27]
		0.05	3.2	0.16	HSQGTFTSDYSKYLDNKRAQDFVQWLMQT-NH2 [PD37]
0.02	0.03				HSQGTFTSDYSKYLDSKRAHDFVQWLLNT-NH2 [PD45]
0.05	0.08				HSQGTFTSDYSKYLDSRMAYDFVQWLMNT-NH2 [PD56]

Source: patent publication US10493125B2 (Merck Sharp & Dohme Corp., priority 2015, dated 2019)
